In US20230031406A1, “COMPOUNDS AND COMPOSITIONS FOR TREATING CONDITIONS ASSOCIATED WITH NLRP ACTIVITY” (Novartis AG, priority 2018, published 2023):

The molecules below were run on PMA-differentiated THP-1 cells (assay: IL-1β production in PMA-differentiated THP-1 cells stimulated with gramicidin (hTHP-1 assay containing 2% fetal bovine serum; Procedures 1 and 2)). Settings: Homo sapiens, THP-1, Table B3; hTHP-1 assay, 2% fetal bovine serum; class symbols; read-out: IC50.
Type: cell-based, human
Method in brief: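 THP-1 cells were differentiated with PMA (20 ng/ml, 16-18 h), detached, and plated at 50,000 cells/well in RPMI 1640 with 2% FBS. They were pre-treated with compound (0.0017–100 μM, 0.37% DMSO) for 1 h, then stimulated with gramicidin (5 μM) for 2 h. Supernatant IL-1β was measured by HTRF.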
Work on `CCn1nc(S(N)(=O)=NC(=O)Nc2c3c(nc4c2CCC4(C)C)CCC3)cc1CO` (single isomer, unassigned) [Example 726, (R) or (S)-N′-((3,3-dimethyl-1,2,3,5,6,7-hexahydrodicyclopenta[b,e]pyridin-8-yl)carbamoyl)-1-ethyl-5-(hydroxymethyl)-1H-pyrazole-3-sulfonimidamide] yielded an IC50 of 0.2 to 1 µM.

Same assay, conditions: Homo sapiens, THP-1, Table B3; hTHP-1 assay, 2% fetal bovine serum; numeric values; read-out: IC50
With `CCn1nc(S(N)(=O)=NC(=O)Nc2c3c(nc4c2CCC4(C)C)CCC3)cc1CO` (single isomer, unassigned) [Example 725, (S) or (R)-N′-((3,3-dimethyl-1,2,3,5,6,7-hexahydrodicyclopenta[b,e]pyridin-8-yl)carbamoyl)-1-ethyl-5-(hydroxymethyl)-1H-pyrazole-3-sulfonimidamide] the IC50 was > 30 µM.

Same assay, conditions: Homo sapiens, THP-1, Table B4; 2% fetal bovine serum; class symbols; read-out: hTHP-1 IC50
`C[C@H]1CCc2c1nc1c(c2NC(=O)N=S(N)(=O)c2cnc([C@@](C)(O)CO)s2)CCC1` (single isomer, unassigned) [Example 729] was tested, and the IC50 was 1 to 5 µM. For `C[C@@H]1CCc2c1nc1c(c2NC(=O)N=S(N)(=O)c2cnc([C@@](C)(O)CO)s2)CCC1` (single isomer, unassigned) [Example 730], the IC50 was 0.2 to 1 µM. `C[C@@H]1CCc2c1nc1c(c2NC(=O)N=S(N)(=O)c2cnc([C@](C)(O)CO)s2)CCC1` (single isomer, unassigned) [Example 731] showed an IC50 of 0.04 to 0.2 µM. `C[C@H]1CCc2c1nc1c(c2NC(=O)N=S(N)(=O)c2cnc([C@](C)(O)CO)s2)CCC1` (single isomer, unassigned) [Example 732] gave an IC50 of 1 to 5 µM. Molecule `NS(=O)(=NC(=O)Nc1c2c(nc3c1CCC3)CCC2)c1nn(C(F)F)cc1F` (single isomer, unassigned) [Example 759, (R) or (S)-1-(difluoromethyl)-4-fluoro-N′-((1,2,3,5,6,7-hexahydrodicyclopenta[b,e]pyridin-8-yl)carbamoyl)-1H-pyrazole-3-sulfonimidamide] has an IC50 of 0.2 to 1 µM.

Same assay, conditions: Homo sapiens, THP-1, Table B4; 2% fetal bovine serum; numeric bounds; read-out: hTHP-1 IC50
For `NS(=O)(=NC(=O)Nc1c2c(nc3c1CCC3)CCC2)c1nn(C(F)F)cc1F` (single isomer, unassigned) [Example 760, (S) or (R)-1-(difluoromethyl)-4-fluoro-N′-((1,2,3,5,6,7-hexahydrodicyclopenta[b,e]pyridin-8-yl)carbamoyl)-1H-pyrazole-3-sulfonimidamide], the IC50 was > 30 µM.

Same assay, conditions: Table B3; hTHP-1 assay, 2% fetal bovine serum; class symbols; read-out: IC50
`Cc1nc2c(c(NC(=O)N=S(N)(=O)c3nn(C(F)F)cc3F)c1-c1ccccc1)CCC2` (single isomer, unassigned) [Example 727, (R) or (S)-1-(difluoromethyl)-4-fluoro-N′-((2-methyl-3-phenyl-6,7-dihydro-5H-cyclopenta[b]pyridin-4-yl)carbamoyl)-1H-pyrazole-3-sulfonimidamide] gave an IC50 of 0.04 to 0.2 µM. Molecule `Cc1nc2c(c(NC(=O)N=S(N)(=O)c3nn(C(F)F)cc3F)c1-c1ccccc1)CCC2` (single isomer, unassigned) [Example 728, (S) or (R)-1-(difluoromethyl)-4-fluoro-N′-((2-methyl-3-phenyl-6,7-dihydro-5H-cyclopenta[b]pyridin-4-yl)carbamoyl)-1H-pyrazole-3-sulfonimidamide] has an IC50 of 1 to 5 µM.

Same assay, conditions: Table B4; 2% fetal bovine serum; class symbols; read-out: hTHP-1 IC50
`Cc1c(C(F)(F)F)nc(C(F)(F)F)c(C)c1NC(=O)N=S(N)(=O)c1cc(C(C)(C)O)cs1` (single isomer, unassigned) [Example 755, (R) or (S)-N′-((3,5-dimethyl-2,6-bis(trifluoromethyl)pyridin-4-yl)carbamoyl)-4-(2-hydroxypropan-2-yl)thiophene-2-sulfonimidamide] gave an IC50 of 0.2 to 1 µM. `Cc1c(C(F)(F)F)nc(C(F)(F)F)c(C)c1NC(=O)N=S(N)(=O)c1cc(C(C)(C)O)cs1` (single isomer, unassigned) [Example 756, (S) or (R)-N′-((3,5-dimethyl-2,6-bis(trifluoromethyl)pyridin-4-yl)carbamoyl)-4-(2-hydroxypropan-2-yl)thiophene-2-sulfonimidamide] was tested, and the IC50 was 5 to 30 µM. `CC(C)n1cc(F)c(S(N)(=O)=NC(=O)Nc2c3c(nc4c2CC[C@H]4C)CCC3)n1` (single isomer, unassigned) [Example 757, (R) or (S)-4-fluoro-1-isopropyl-N′-(((R)-3-methyl-1,2,3,5,6,7-hexahydrodicyclopenta[b,e]pyridin-8-yl)carbamoyl)-1H-pyrazole-3-sulfonimidamide] was tested, and the IC50 was 0.008 to 0.04 µM. In the case of `CC(C)n1cc(F)c(S(N)(=O)=NC(=O)Nc2c3c(nc4c2CC[C@H]4C)CCC3)n1` (single isomer, unassigned) [Example 758, (S) or (R)-4-fluoro-1-isopropyl-N′-(((R)-3-methyl-1,2,3,5,6,7-hexahydrodicyclopenta[b,e]pyridin-8-yl)carbamoyl)-1H-pyrazole-3-sulfonimidamide], the IC50 is reported as 1 to 5 µM. `CCn1cc(F)c(S(N)(=O)=NC(=O)Nc2c3c(nc4c2CCC4)CCC3)n1` (single isomer, unassigned) [Example 761, (R) or (S)-1-ethyl-4-fluoro-N′-((1,2,3,5,6,7-hexahydrodicyclopenta[b,e]pyridin-8-yl)carbamoyl)-1H-pyrazole-3-sulfonimidamide] showed an IC50 of 0.04 to 0.2 µM. Molecule `CCn1cc(F)c(S(N)(=O)=NC(=O)Nc2c3c(nc4c2CCC4)CCC3)n1` (single isomer, unassigned) [Example 762, (S) or (R)-1-ethyl-4-fluoro-N′-((1,2,3,5,6,7-hexahydrodicyclopenta[b,e]pyridin-8-yl)carbamoyl)-1H-pyrazole-3-sulfonimidamide] has an IC50 of 5 to 30 µM. `NS(=O)(=NC(=O)Nc1c2c(nc(C3CC3)c1C1CC1)CCC2)c1nn(C(F)F)cc1F` (single isomer, unassigned) [Example 763, (R) or (S)-N′-((2,3-dicyclopropyl-6,7-dihydro-5H-cyclopenta[b]pyridin-4-yl)carbamoyl)-1-(difluoromethyl)-4-fluoro-1H-pyrazole-3-sulfonimidamide] was tested, and the IC50 was 0.2 to 1 µM. `NS(=O)(=NC(=O)Nc1c2c(nc(C3CC3)c1C1CC1)CCC2)c1nn(C(F)F)cc1F` (single isomer, unassigned) [Example 764, (S) or (R)-N′-((2,3-dicyclopropyl-6,7-dihydro-5H-cyclopenta[b]pyridin-4-yl)carbamoyl)-1-(difluoromethyl)-4-fluoro-1H-pyrazole-3-sulfonimidamide] showed an IC50 of 5 to 30 µM. Molecule `NS(=O)(=NC(=O)Nc1c2c(nc(C(F)(F)F)c1-c1ccccc1)CCC2)c1nn(C(F)F)cc1F` (single isomer, unassigned) [Example 765, (R) or (S)-1-(difluoromethyl)-4-fluoro-N′-((3-phenyl-2-(trifluoromethyl)-6,7-dihydro-5H-cyclopenta [b]pyridin-4-yl)carbamoyl)-1H-pyrazole-3-sulfonimidamide] has an IC50 of 0.008 to 0.04 µM. `NS(=O)(=NC(=O)Nc1c2c(nc(C(F)(F)F)c1-c1ccccc1)CCC2)c1nn(C(F)F)cc1F` (single isomer, unassigned) [Example 766, (S) or (R)-1-(difluoromethyl)-4-fluoro-N′-((3-phenyl-2-(trifluoromethyl)-6,7-dihydro-5H-cyclopenta[b]pyridin-4-yl)carbamoyl)-1H-pyrazole-3-sulfonimidamide] showed an IC50 of 1 to 5 µM. With `CCn1cc(F)c(S(N)(=O)=NC(=O)Nc2c3c(nc(C(F)(F)F)c2-c2ccccc2)CCC3)n1` (single isomer, unassigned) [Example 767, (R) or (S)-1-ethyl-4-fluoro-N′-((3-phenyl-2-(trifluoromethyl)-6,7-dihydro-5H-cyclopenta[b]pyridin-4-yl)carbamoyl)-1H-pyrazole-3-sulfonimidamide] the IC50 was 0.008 to 0.04 µM. For `CCn1cc(F)c(S(N)(=O)=NC(=O)Nc2c3c(nc(C(F)(F)F)c2-c2ccccc2)CCC3)n1` (single isomer, unassigned) [Example 768, (S) or (R)-1-ethyl-4-fluoro-N′-((3-phenyl-2-(trifluoromethyl)-6,7-dihydro-5H-cyclopenta[b]pyridin-4-yl)carbamoyl)-1H-pyrazole-3-sulfonimidamide], the IC50 was 0.2 to 1 µM. Work on `CCn1cc(F)c(S(N)(=O)=NC(=O)Nc2c3c(nc(C)c2-c2ccccc2)CCC3)n1` (single isomer, unassigned) [Example 769, (R) or (S)-1-ethyl-4-fluoro-N′-((2-methyl-3-phenyl-6,7-dihydro-5H-cyclopenta[b]pyridin-4-yl)carbamoyl)-1H-pyrazole-3-sulfonimidamide] yielded an IC50 of 5 to 30 µM. `CCn1cc(F)c(S(N)(=O)=NC(=O)Nc2c3c(nc(C)c2-c2ccccc2)CCC3)n1` (single isomer, unassigned) [Example 770, (S) or (R)-1-ethyl-4-fluoro-N′-((2-methyl-3-phenyl-6,7-dihydro-5H-cyclopenta[b]pyridin-4-yl)carbamoyl)-1H-pyrazole-3-sulfonimidamide] gave an IC50 of 0.04 to 0.2 µM. `CCc1c(C(F)(F)F)nc2c(c1NC(=O)N=S(N)(=O)c1nn(CC)cc1F)CCC2` (single isomer, unassigned) [Example 771, (R) or (S)-1-ethyl-N′-((3-ethyl-2-(trifluoromethyl)-6,7-dihydro-5H-cyclopenta[b]pyridin-4-yl)carbamoyl)-4-fluoro-1H-pyrazole-3-sulfonimidamide] gave an IC50 of 0.2 to 1 µM. For `CCc1c(C(F)(F)F)nc2c(c1NC(=O)N=S(N)(=O)c1nn(CC)cc1F)CCC2` (single isomer, unassigned) [Example 772, (S) or (R)-1-ethyl-N′-((3-ethyl-2-(trifluoromethyl)-6,7-dihydro-5H-cyclopenta[b]pyridin-4-yl)carbamoyl)-4-fluoro-1H-pyrazole-3-sulfonimidamide], the IC50 was 5 to 30 µM. In the case of `CCn1cc(F)c(S(N)(=O)=NC(=O)Nc2c3c(nc(C(F)(F)F)c2C2CC2)CCC3)n1` (single isomer, unassigned) [Example 773, (R) or (S)-N′-((3-cyclopropyl-2-(trifluoromethyl)-6,7-dihydro-5H-cyclopenta[b]pyridin-4-yl)carbamoyl)-1-ethyl-4-fluoro-1H-pyrazole-3-sulfonimidamide], the IC50 is reported as 0.04 to 0.2 µM.
